We go through 41 compounds from paper PMC9250534, “Synthesis and direct assay of large macrocycle diversities by combinatorial late-stage modification at picomole scale” (Nature Communications, 2022).

SMILES strings stand for the structures.

For the first assay, the target named is MDM2 (Homo sapiens, UniProt Q00987). Nature of the assay: MDM2 binding screen of Libraries 3 and 4: displacement of fluorescent probe F-M8 at 750 nM macrocycle. The following applies: Panel b, Library 3: 63 scaffolds combinatorially acylated with 15 carboxylic acids at 30 picomole scale; displacement of fluorescent peptide probe; macrocycle 750 nM. The method, boiled down: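 Cyclic peptide scaffolds were acylated in DMSO with carboxylic acids (20 equiv.), HBTU and DABCO for 6 h at room temperature. Reactions were quenched overnight in 100 mM Tris-Cl pH 7.4, 0.01% Tween20. The fluorescein conjugate was also competed with nutlin-3a.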
Sequence of MDM2 (Q00987 whole entry): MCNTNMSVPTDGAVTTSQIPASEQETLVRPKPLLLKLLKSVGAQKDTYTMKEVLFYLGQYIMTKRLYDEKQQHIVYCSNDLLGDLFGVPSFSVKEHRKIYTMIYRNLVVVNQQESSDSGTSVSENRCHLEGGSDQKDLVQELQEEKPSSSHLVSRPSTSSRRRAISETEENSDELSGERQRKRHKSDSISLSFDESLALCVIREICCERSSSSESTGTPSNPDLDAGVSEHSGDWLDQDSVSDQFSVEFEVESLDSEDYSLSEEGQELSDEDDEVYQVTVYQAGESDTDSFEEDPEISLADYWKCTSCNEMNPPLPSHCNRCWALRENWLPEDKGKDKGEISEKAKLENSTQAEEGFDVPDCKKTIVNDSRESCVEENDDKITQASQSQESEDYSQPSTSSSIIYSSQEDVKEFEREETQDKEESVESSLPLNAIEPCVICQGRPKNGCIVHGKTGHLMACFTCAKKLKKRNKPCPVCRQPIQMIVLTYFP
Regarding `Cn1cc(C[C@@H]2NC(=O)[C@H](CNC(=O)c3ccc(Cl)s3)NC(=O)C3(CC3)CNC(=O)CCSSCCNC2=O)c2ccccc21` [X-Amcp-Dap-Me-Trp + Acid 14], the “fraction of fluorescent probe displaced” value was 0.008.
Same read-out and setting: then `Cn1cc(CC2NC(=O)C(CNC(=O)C3CC3c3ccccc3)NC(=O)C3(CC3)CNC(=O)CCSSCCNC2=O)c2ccccc21` (centres unmarked) [X-Amcp-Dap-Me-Trp + Acid 105], with -0.021; and `Cn1cc(C[C@@H]2NC(=O)[C@H](CNC(=O)/C=C/c3ccc(Cl)cc3)NC(=O)C3(CC3)CNC(=O)CCSSCCNC2=O)c2ccccc21` [X-Amcp-Dap-Me-Trp + Acid 108], with 0.008; and `Cn1cc(C[C@@H]2NC(=O)[C@H](CNC(=O)/C=C/c3ccc(OCc4ccccc4)cc3)NC(=O)C3(CC3)CNC(=O)CCSSCCNC2=O)c2ccccc21` [X-Amcp-Dap-Me-Trp + Acid 110], with 0.008.
The same measure, in the same setting: with `Cn1cc(C[C@@H]2NC(=O)[C@H](CNC(=O)/C=C/c3ccc4ccccc4c3)NC(=O)C3(CC3)CNC(=O)CCSSCCNC2=O)c2ccccc21` [X-Amcp-Dap-Me-Trp + Acid 112] the figure was 0.028; with `Cn1cc(C[C@@H]2NC(=O)[C@H](CNC(=O)CCS(=O)(=O)c3ccccc3)NC(=O)C3(CC3)CNC(=O)CCSSCCNC2=O)c2ccccc21` [X-Amcp-Dap-Me-Trp + Acid 114], 0.041; with `Cn1cc(C[C@@H]2NC(=O)[C@H](CNC(=O)C3COc4ccccc4O3)NC(=O)C3(CC3)CNC(=O)CCSSCCNC2=O)c2ccccc21` (some centres unmarked) [X-Amcp-Dap-Me-Trp + Acid 115], 0.015.
Turning to `CN1C(=O)[C@H](CNC(=O)c2ccc(Cl)s2)NC(=O)C2(CC2)CNC(=O)CCSSCCNC(=O)[C@@H]1Cc1c[nH]c2ccccc12` [X-Amcp-Dap-NMe-Trp + Acid 14], the “fraction of fluorescent probe displaced” value is given as -0.025.
Still for that read-out and setting: then `CN1C(=O)[C@H](CNC(=O)c2ccc(Cl)cc2)NC(=O)C2(CC2)CNC(=O)CCSSCCNC(=O)[C@@H]1Cc1c[nH]c2ccccc12` [X-Amcp-Dap-NMe-Trp + Acid 25], with 0.00133; and `CN1C(=O)[C@H](CNC(=O)/C=C/c2ccc(OCc3ccccc3)cc2)NC(=O)C2(CC2)CNC(=O)CCSSCCNC(=O)[C@@H]1Cc1c[nH]c2ccccc12` [X-Amcp-Dap-NMe-Trp + Acid 110], with 0.015.
On the same count and under the same terms, with `CN1C(=O)[C@H](CNC(=O)c2cccc(Oc3ccccc3)c2)NC(=O)C2(CC2)CNC(=O)CCSSCCNC(=O)[C@@H]1Cc1c[nH]c2ccccc12` [X-Amcp-Dap-NMe-Trp + Acid 111] the figure was -0.012; with `CN1C(=O)[C@H](CNC(=O)CCS(=O)(=O)c2ccccc2)NC(=O)C2(CC2)CNC(=O)CCSSCCNC(=O)[C@@H]1Cc1c[nH]c2ccccc12` [X-Amcp-Dap-NMe-Trp + Acid 114], 0.055.
Still for that read-out and setting: then `O=C1CCSSCCNC(=O)[C@H](Cc2c[nH]c3ccccc23)NC(=O)[C@H](CNC(=O)c2ccc(Cl)s2)NC(=O)C2(CC2)CN1` [X-Amcp-Dap-Trp + Acid 14], with 0.008; and `O=C1CCSSCCNC(=O)[C@H](Cc2c[nH]c3ccccc23)NC(=O)[C@H](CNC(=O)c2ccc(Cl)cc2)NC(=O)C2(CC2)CN1` [X-Amcp-Dap-Trp + Acid 25], with 0.048.
`O=C1CCSSCCNC(=O)[C@H](Cc2c[nH]c3ccccc23)NC(=O)[C@H](CNC(=O)c2ccc3ccccc3c2)NC(=O)C2(CC2)CN1` [X-Amcp-Dap-Trp + Acid 107]: the “fraction of fluorescent probe displaced” value was determined as 0.063.
On the same count and under the same terms, then `O=C(/C=C/c1ccc(Cl)cc1)NC[C@@H]1NC(=O)C2(CC2)CNC(=O)CCSSCCNC(=O)[C@H](Cc2c[nH]c3ccccc23)NC1=O` [X-Amcp-Dap-Trp + Acid 108], with 0.068.
On the same count and under the same terms, with `O=C(/C=C/c1ccc(OCc2ccccc2)cc1)NC[C@@H]1NC(=O)C2(CC2)CNC(=O)CCSSCCNC(=O)[C@H](Cc2c[nH]c3ccccc23)NC1=O` [X-Amcp-Dap-Trp + Acid 110] the figure was 0.015; with `O=C(CCS(=O)(=O)c1ccccc1)NC[C@@H]1NC(=O)C2(CC2)CNC(=O)CCSSCCNC(=O)[C@H](Cc2c[nH]c3ccccc23)NC1=O` [X-Amcp-Dap-Trp + Acid 114], -0.00533; with `O=C1CCSSCCNC(=O)[C@H](Cc2cccc3ccccc23)NC(=O)CN(CCNC(=O)c2ccc(Cl)cc2)C(=O)C2(CC2)CN1` [X-Amcp-N-Aeg-1-NaI + Acid 25], -0.012.
For the compound `O=C1CCSSCCNC(=O)[C@H](Cc2cccc3ccccc23)NC(=O)CN(CCNC(=O)c2ccc3ccccc3c2)C(=O)C2(CC2)CN1` [X-Amcp-N-Aeg-1-NaI + Acid 107], the “fraction of fluorescent probe displaced” value is listed as 0.011.
`O=C(/C=C/c1ccc(Cl)cc1)NCCN1CC(=O)N[C@@H](Cc2cccc3ccccc23)C(=O)NCCSSCCC(=O)NCC2(CC2)C1=O` [X-Amcp-N-Aeg-1-NaI + Acid 108]: the “fraction of fluorescent probe displaced” value is reported as 0.035.
On the same count and under the same terms, with `O=C(/C=C/c1ccc2ccccc2c1)NCCN1CC(=O)N[C@@H](Cc2cccc3ccccc23)C(=O)NCCSSCCC(=O)NCC2(CC2)C1=O` [X-Amcp-N-Aeg-1-NaI + Acid 112] the figure was 0.008; with `CC(Oc1cccc(Cl)c1)C(=O)NCCN1CC(=O)N[C@@H](Cc2cccc3ccccc23)C(=O)NCCSSCCC(=O)NCC2(CC2)C1=O` (some centres unmarked) [X-Amcp-N-Aeg-1-NaI + Acid 113], 0.028; with `O=C(CCS(=O)(=O)c1ccccc1)NCCN1CC(=O)N[C@@H](Cc2cccc3ccccc23)C(=O)NCCSSCCC(=O)NCC2(CC2)C1=O` [X-Amcp-N-Aeg-1-NaI + Acid 114], 0.00133.
Same read-out and setting: with `O=C1CCSSCCNC(=O)[C@H](Cc2ccc3ccccc3c2)NC(=O)CN(CCNC(=O)c2ccc(Cl)s2)C(=O)C2(CC2)CN1` [X-Amcp-N-Aeg-2-Nal + Acid 14] the figure was -0.032.
`O=C1CCSSCCNC(=O)C(Cc2ccc3ccccc3c2)NC(=O)CN(CCNC(=O)C2CC2c2ccccc2)C(=O)C2(CC2)CN1` (centres unmarked) [X-Amcp-N-Aeg-2-Nal + Acid 105]: the “fraction of fluorescent probe displaced” value is reported as -0.041.
Still for that read-out and setting: then `O=C1CCSSCCNC(=O)[C@H](Cc2ccc3ccccc3c2)NC(=O)CN(CCNC(=O)c2ccc3ccccc3c2)C(=O)C2(CC2)CN1` [X-Amcp-N-Aeg-2-Nal + Acid 107], with 0.018.
The same measure, in the same setting: with `O=C(/C=C/c1ccc(Cl)cc1)NCCN1CC(=O)N[C@@H](Cc2ccc3ccccc3c2)C(=O)NCCSSCCC(=O)NCC2(CC2)C1=O` [X-Amcp-N-Aeg-2-Nal + Acid 108] the figure was 0.041.
Same read-out and setting: with `O=C(/C=C/c1ccc(OCc2ccccc2)cc1)NCCN1CC(=O)N[C@@H](Cc2ccc3ccccc3c2)C(=O)NCCSSCCC(=O)NCC2(CC2)C1=O` [X-Amcp-N-Aeg-2-Nal + Acid 110] the figure was 0.021.
For `CC(Oc1cccc(Cl)c1)C(=O)NCCN1CC(=O)N[C@@H](Cc2ccc3ccccc3c2)C(=O)NCCSSCCC(=O)NCC2(CC2)C1=O` (some centres unmarked) [X-Amcp-N-Aeg-2-Nal + Acid 113], the “fraction of fluorescent probe displaced” value was 0.008.
In the case of `O=C(CCS(=O)(=O)c1ccccc1)NCCN1CC(=O)N[C@@H](Cc2ccc3ccccc3c2)C(=O)NCCSSCCC(=O)NCC2(CC2)C1=O` [X-Amcp-N-Aeg-2-Nal + Acid 114], the “fraction of fluorescent probe displaced” value was 0.028.
Take `O=C1CCSSCCNC(=O)[C@H](Cc2c[nH]c3cc(Cl)ccc23)NC(=O)CN(CCNC(=O)c2ccc(Cl)cc2)C(=O)C2(CC2)CN1` [X-Amcp-N-Aeg-Cl-Trp + Acid 25]: the “fraction of fluorescent probe displaced” value is -0.025.
Same read-out and setting: then `O=C(/C=C/c1ccc(OCc2ccccc2)cc1)NCCN1CC(=O)N[C@@H](Cc2c[nH]c3cc(Cl)ccc23)C(=O)NCCSSCCC(=O)NCC2(CC2)C1=O` [X-Amcp-N-Aeg-Cl-Trp + Acid 110], with 0.015.
The same measure, in the same setting: then `O=C1CCSSCCNC(=O)[C@H](Cc2c[nH]c3cc(Cl)ccc23)NC(=O)CN(CCNC(=O)c2cccc(Oc3ccccc3)c2)C(=O)C2(CC2)CN1` [X-Amcp-N-Aeg-Cl-Trp + Acid 111], with -0.00533.

The assay is the same for the next values; noted with them: Panel c, Library 4: best nine scaffolds and 15 additional carboxylic acids; displacement of fluorescent probe.
As for `O=C(/C=C/c1ccc(F)cc1)NC[C@@H]1NC(=O)C2(CC2)CNC(=O)CCSSCCNC(=O)[C@H](Cc2c[nH]c3ccccc23)NC1=O` [X-Amcp-Dap-Trp + Acid 116], the “fraction of fluorescent probe displaced” value was found to be 0.077.
Still for that read-out and setting: with `CCCOc1ccc(/C=C/C(=O)NC[C@@H]2NC(=O)C3(CC3)CNC(=O)CCSSCCNC(=O)[C@H](Cc3c[nH]c4ccccc34)NC2=O)cc1` [X-Amcp-Dap-Trp + Acid 118] the figure was 0.069.
Regarding `O=C(/C=C/c1ccc(Cl)c(Cl)c1)NC[C@@H]1NC(=O)C2(CC2)CNC(=O)CCSSCCNC(=O)[C@H](Cc2c[nH]c3ccccc23)NC1=O` [X-Amcp-Dap-Trp + Acid 119], the “fraction of fluorescent probe displaced” value stood at 0.069.
Same read-out and setting: with `O=C(/C=C/c1cccc(Cl)c1)NC[C@@H]1NC(=O)C2(CC2)CNC(=O)CCSSCCNC(=O)[C@H](Cc2c[nH]c3ccccc23)NC1=O` [X-Amcp-Dap-Trp + Acid 121] the figure was 0.052; with `O=C(/C=C/c1cccc(C(F)(F)F)c1)NC[C@@H]1NC(=O)C2(CC2)CNC(=O)CCSSCCNC(=O)[C@H](Cc2c[nH]c3ccccc23)NC1=O` [X-Amcp-Dap-Trp + Acid 122], 0.052; with `CC(C)c1ccc(/C=C/C(=O)NC[C@@H]2NC(=O)C3(CC3)CNC(=O)CCSSCCNC(=O)[C@H](Cc3c[nH]c4ccccc34)NC2=O)cc1` [X-Amcp-Dap-Trp + Acid 127], 0.028.
Regarding `O=C1CCSSCCNC(=O)[C@H](Cc2c[nH]c3ccccc23)NC(=O)[C@H](CNC(=O)c2cnc3ccccc3n2)NC(=O)C2(CC2)CN1` [X-Amcp-Dap-Trp + Acid 130], the “fraction of fluorescent probe displaced” value is listed as 0.0035.
